Experimental data published in US10213449B2, “Compositions and methods for treating medulloblastoma” (The Board of Trustees of the Leland Stanford Junior …, priority 2016, dated 2019).

Test system: Brd4 occupancy at Gli1 and Gli2 promoters
Test: Brd4 ChIP-qPCR in NIH3T3s stimulated with SHH
Assay type: cell-based, mouse
Method: It was therefore investigated whether CK2 regulates Brd4-mediated transactivation of the Gli promoters. Chromatin immunoprecipitation (ChIP) was performed in NIH3T3s stimulated with SHH using anti-Brd4 antibodies, followed by quantitative PCR (qPCR) of regions flanking the transcription start sites within the Gli1 and Gli2 promoters.
Wildtype CD1-Elite (Charles River strain 482) P7 mice were randomized to control or treatment groups then given two injections of DMSO (control) or TBB (30 mg/kg) q12h×2. Mice were sacrificed and GNPs were isolated as described in “GNP isolation”. Chomatin immunoprecipitation was performed as previously described. GNPs were cross-linked in 1% formaldehyde for 10 minutes at RT then fixation was stopped by adding 2.5M glycine for 10 minutes. Samples were washed and stored at −80 until all samples were collected. Crosslinked cells were later thawed on ice, incubated in chilled RIPA for 10 min and sonicated 7×15 min. To prepare blocking beads, 60 uL/sample of protein G beads (Roche 11719416001) were incubated with 5% BSA on a rocker at 4 degrees for at least 1 h. […] ChIP and input DNA was quantified using Qubit DS DNA HS assay as per manufacturer's protocol (ThermoFisher Q32851). […] Library was quantified via Qubit DS DNA HS assay and library quality was determined using an Agilent 2100 Bioanalyzer. […]

Brc1c(Br)c(Br)c2[nH]nnc2c1Br [TBB, 4,5,6,7-tetrabromo-2H-benzotriazole]
Brd4 occupancy at Gli1 promoter: blocked
Brd4 occupancy at Gli2 promoter: blocked
